Consider 35 compounds from patent US20050288323A1, “Octahydro-indolizine and quinolizine and hexahydro-pyrrolizine” (priority 2000, published 2005).

What is called Ki is a measure of affinity in units of concentration, obtained from inhibition or displacement. Low values mean a stronger hold on the target, high ones a looser hold on the target.

The target in one assay is T1, human histamine H3 receptor (Homo sapiens, UniProt Q9Y5N1).
T1 construct: One microgram of supercoiled H3 receptor cDNA was added to the cells and mixed; expressed in transfected cells; membranes
T1 sequence (Q9Y5N1 whole entry): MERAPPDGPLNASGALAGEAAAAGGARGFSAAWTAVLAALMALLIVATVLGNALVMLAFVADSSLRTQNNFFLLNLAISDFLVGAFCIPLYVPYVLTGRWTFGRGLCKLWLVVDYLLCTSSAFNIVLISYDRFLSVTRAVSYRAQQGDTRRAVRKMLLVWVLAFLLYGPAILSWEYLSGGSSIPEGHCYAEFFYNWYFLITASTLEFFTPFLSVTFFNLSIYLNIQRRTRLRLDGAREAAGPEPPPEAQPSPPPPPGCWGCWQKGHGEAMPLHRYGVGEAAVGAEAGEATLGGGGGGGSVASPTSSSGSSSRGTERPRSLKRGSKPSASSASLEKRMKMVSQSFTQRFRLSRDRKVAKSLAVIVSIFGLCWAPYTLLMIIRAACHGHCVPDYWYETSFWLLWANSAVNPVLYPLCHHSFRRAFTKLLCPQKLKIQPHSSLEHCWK
Description: [3H]-N-methylhistamine binding. Particulars: Table 1; [3H]-N-methylhistamine binding. The procedure: Thus in the present invention receptor binding was determined using the human histamine H3 receptor (See Lovenberg et al Mol. Pharmacol. 1999, 1107). Screening using the human receptor is particularly important for the identification of new therapies for the treatment of human disease. Conventional binding assays for example are determined using rat synaptosomes (Garbarg et al J. Pharmacol. Exp. Ther. 1992, 263, 304), rat cortical membranes (West et al Mol. Pharmacol. 1990, 610), and guinea pig brain (Korte et al Biochem. Biophys. Res. Commun. 1990, 978). Only limited studies have been performed previously using human tissue but these allude to significant differences in the pharmacology of rodent and primate receptors (West et al Eur. J. Pharmacol. 1999, 233).
Transfection of Cells with Human Histamine Receptor
A 10 cm tissue culture dish with a confluent monolayer of SK-N-MC cells was split two days prior to transfection. Using sterile technique the media was removed and the cells were detached from the dish by the addition of trypsin. One fifth of the cells were then placed onto a new 10 cm dish. Cells were grown in a 37° C. incubator with 5% CO2 in Minimal Essential Media Eagle with 10% Fetal Bovine Serum. After two days cells were approximately 80% confluent. These were removed from the dish with trypsin and pelleted in a clinical centrifuge. The pellet was then re-suspended in 400 μL complete media and transferred to an electroporation cuvette with a 0.4 cm gap between the electrodes (Bio-Rad #165-2088). One microgram of supercoiled H3 receptor cDNA was added to the cells and mixed. The voltage for the electroporation was set at 0.25 kV, the capacitance was set at 960 μF. After electroporation the cells were diluted into 10 mL complete media and plated onto four 10 cm dishes. Because of the variability in the efficiency of electroporation, four different concentrations of cells were plated. The ratios used were; 1:20, 1:10, 1:5, with the remainder of the cells being added to the fourth dish. The cells were allowed to recover for 24 hours before adding the selection media (complete media with 600 μg/mL G418). After 10 days dishes were analyzed for surviving colonies of cells. Dishes with well isolated colonies were used. Cells from individual colonies were isolated and tested. SK-N-MC cells were used because they give efficient coupling for inhibition of adenylate cyclase. The clones that gave the most robust inhibition of adenylate cyclase in response to histamine were used for further study.
[^3H]-N-methylhistamine Binding
Cell pellets from histamine H3 receptor-expressing SK-N-MC cells were homogenized in 20 mM TrisHCl/0.5 mM EDTA. Supernatants from a 800 g spin were collected, recentrifuged at 30,000 g for 30 minutes. Pellets were re-homogenized in 50 mM Tris/5 mM EDTA (pH 7.4). Membranes were incubated with 0.8 nM [^3H]-N-methylhistamine plus/minus test compounds for 45 min at 25° C. and harvested by rapid filtration over GF/C glass fiber filters (pretreated with 0.3% polyethylenimine) followed by four washes with ice cold buffer. Filters were dried, added to 4 mL scintillation cocktail and then counted on a liquid scintillation counter. Non-specific binding was defined with 10 μM histamine. The pKi values were calculated based on a Kd of 800 pM and a ligand concentration ([L]) of 800 pM according to the formula: Ki=(IC50)/(1+([L]/(Kd))
With `Brc1ccc([C@@H]2CC[C@H]3CCCCN32)cc1` (racemic) [Example 2], the affinity corresponds to a Ki of 1000 nM.
On the same count and under the same terms, the figure for `c1ccc(Oc2ccc([C@H]3CC[C@H]4CCCCN43)cc2)cc1` (racemic) [Example 11] is 400 nM.

The same assay, now with this note: Table 2; [3H]-N-methylhistamine binding.
Turning to `N#Cc1ccc(Sc2ccc([C@H]3CC[C@H]4CCCCN43)cc2)cc1` (racemic) [Example 38], the inhibition constant (Ki) worked out at 558 nM.
Still for that read-out and setting: under `c1cnc(Sc2ccc([C@H]3CC[C@H]4CCCCN43)cc2)nc1` (racemic) [Example 32] stands 650 nM.

Still in this assay, the particulars now being: Table 3; [3H]-N-methylhistamine binding.
The compound `Nc1cccc(-c2ccc([C@H]3CC[C@H]4CCCCN43)cc2)c1` (racemic) [Example 48] gave an inhibitory constant (Ki) of 665 nM.

Staying with this assay, now noted: Table 5; [3H]-N-methylhistamine binding.
In the case of `c1ccc(CNc2ccc([C@H]3CC[C@H]4CCCCN43)cc2)nc1` (racemic) [Example 128], the Ki worked out at 1340 nM.
As to `c1ccc(CNc2ccc([C@H]3CC[C@H]4CCCCN43)cc2)cc1` (racemic) [Example 132], the Ki turned out to be 511 nM.

Staying with this assay, now noted: [3H]-N-methylhistamine 0.8 nM, membranes of H3 receptor-expressing SK-N-MC cells.
`C(=C\c1ccc([C@H]2CC[C@H]3CCCCN32)cc1)/c1ccncc1` (racemic) [Example 73, trans-3-[4-(4-Pyridinylethenyl)phenyl]octahydroindolizine] came in with a Ki of 65 nM.
Compound `Nc1ccc(Sc2ccc([C@H]3CC[C@H]4CCCCN43)cc2)cc1` (racemic) [Example 40, tran-3-[4-(4-Aminophenylthio)phenyl]octahydroindolizine] gave an inhibitory constant (Ki) of 62 nM.
Same read-out and setting: the figure for `c1cc([C@H]2CC[C@H]3CCCCN32)ccc1OCCCN1CCCCC1` [Example 93, (R, R)-3-(4-(3-Piperidinylpropoxy)phenyl)octahydroindolizine] is 0.06 nM.
Still for that read-out and setting: the figure for `Nc1ccc([C@@H]2CC[C@@H]3CCCCN32)cc1` (relative stereo) [Example 95, trans-3-(4-Aminophenyl)octahydroindolizine] is 32 nM; for `c1cc([C@H]2CC3CCCCN3C2)ccc1OCCCN1CCCCC1` (mixture of isomers) [Example 68, anti-2-(4-(3-Piperidinylpropoxy)phenyl)octahydroindolizine] it is 0.2 nM.
The compound `FC(F)(F)CN1CCCCC1CCOc1ccc([C@H]2CC[C@H]3CCCCN32)cc1` (mixture of isomers) [Example 89, trans-3-{4-[2,2′-(N-Trifluoroethylpiperidinyl)ethoxy]phenyl}octahydroindolizine] had a Ki of 47 nM.
On the same count and under the same terms, under `c1cc(C2CCC3CCCN32)ccc1OCCCN1CCCCC1` (centres unmarked) [Example 140, 3-[4-(Piperidinylpropoxy)phenyl]hexahydro-1H-pyrrolizine] stands 0.6 nM; under `c1cc(C2CC3CCCCN3C2)ccc1OCCCN1CCCCC1` (stereo not drawn) [Example 69, syn-2-[4-(3-Piperidinylpropanoxy)phenyl]octahydroindolizine], 0.2 nM; under `CN(c1ccc([C@H]2CC[C@H]3CCCCN32)cc1)C1CCN(S(C)(=O)=O)CC1` (racemic) [Example 103], 98 nM.
The same measure, in the same setting: the figure for `CS(=O)(=O)Nc1cccc(-c2ccc([C@H]3CC[C@H]4CCCCN43)cc2)c1` [Example 55, tran-3-[4-(3-Methylsulfonylaminophenyl)phenyl]octahydroindolizine] is 320 nM.
Regarding `Nc1ccc(Sc2ccc([C@@H]3CCC[C@@H]4CCCN43)cc2)cc1` (racemic) [Example 39, 5-(4-(4-Aminophenylthio)phenyl)octahydroindolizine], the Ki stood at 75 nM.
Consider `O=S(=O)(CCN1CCCCC1)Nc1ccc([C@H]2CC[C@H]3CCCCN32)cc1` (racemic) [Example 120, trans-3-{4-[(2-Piperidylethyl)sulfonyl]amidophenyl}octahydroindolizine], for which affinity was put at a Ki of 11 nM.
Still for that read-out and setting: the figure for `c1ccc([C@H]2C[C@@H]3CCCCN3C2)c(OCCCN2CCCCC2)c1` (relative stereo) [Example 71, anti-2-[2-(3-Piperidinylpropoxy)phenyl]octahydroindolizine] is 315 nM.
On the same count and under the same terms, the figure for `O=C(N1CCCCC1CCOc1ccc([C@H]2CC[C@H]3CCCCN32)cc1)C(F)(F)F` (mixture of isomers) [Example 88, trans-3-{4-[2,2′-(N-Trifluoroacetylpiperidinyl)ethoxy]phenyl}octahydroindolizine] is 71 nM.
With “N-Methyl-N-[4-(trans-Octahydro-3-indolizinyl)phenyl]-3-piperidinylpropenamide [Example 109]”, the affinity, expressed as Ki, was 1 nM.
Still for that read-out and setting: under `ClCCCCOc1ccc([C@@H]2CCC[C@@H]3CCCN32)cc1` (racemic) [Example 61, 5-[4-(4-Chlorobutanoxy)phenyl]octahydroindolizine] stands 278 nM.
The same measure, in the same setting: under `c1cc(Sc2ccc([C@H]3CC[C@H]4CCCCN43)cc2)ccn1` [Example 137, (R, R)-Octahydro-3-[4-(4-pyridinylthio)phenyl]indolizine] stands 3.8 nM; under `CN(c1ccc([C@H]2CC[C@H]3CCCCN32)cc1)S(C)(=O)=O` (racemic) [Example 99, trans-3-(4-(N-Methyl-N-methylsulfonylamido)phenyl)octahydroindolizine], > 5000 nM.
The same measure, in the same setting: the figure for `CS(=O)(=O)N(c1ccc([C@@H]2CC[C@@H]3CCCCN32)cc1)S(C)(=O)=O` (relative stereo) [Example 98, trans-3-(4-(bis-Methylsulfonylamino)phenyl)octahydroindolizine] is 787 nM; for `c1ccc2c(Oc3ccc([C@H]4CC[C@H]5CCCCN54)cc3)ncnc2c1` (racemic) [Example 34, 4-[4-(Octahydro-indolizin-3-yl)-phenoxy]-quinazoline] it is 92 nM; for `c1ccc(N2CCN(Cc3ccc([C@H]4CC[C@H]5CCCCN54)cc3)CC2)cc1` (racemic) [Example 23, trans-3-[4-(N-Phenyl-1-piperazinylmethyl)phenyl]octahydroindolizine] it is 65 nM.
In the case of `C#Cc1ccc([C@H]2CC[C@H]3CCCCN32)cc1` (racemic) [Example 75, trans-3-(4-acetylenephenyl)octahydroindolizine], the affinity corresponds to a Ki of 1100 nM.
Still for that read-out and setting: under `CN1CCCC1CCOc1ccc([C@H]2CC[C@H]3CCCCN32)cc1` (mixture of isomers) [Example 91, trans-3-{4-[2,2′-(N-Methylpyrrolidinyl)ethoxy]phenyl}octahydroindolizine] stands 2 nM; under `CN(CCCCCN1CCCCC1)c1ccc([C@@H]2CC[C@@H]3CCCCN32)cc1` (relative stereo) [Example 114, trans-3-[4-(N-Methyl-N-5-piperidylpentylamino)phenyl]octahydroindolizine], 9 nM; under `CN(c1ccc([C@@H]2CC[C@@H]3CCCCN32)cc1)S(=O)(=O)CCN1CCCCC1` (relative stereo) [Example 121, trans-3-{4-[(2-Piperidylethyl)sulfonyl-N-methylamino]phenyl}octahydroindolizine], 19 nM.
On the same count and under the same terms, the figure for `c1cc(Sc2ccc([C@@H]3CCC[C@@H]4CCCN43)cc2)ccn1` (racemic) [Example 26, 5-[4-(4-Pyridinylthio)phenyl]octahydroindolizine] is 35 nM.
`CN(C)CCNc1cccc([C@H]2CC[C@H]3CCCCN32)c1` (racemic) [Example 56, tran-3-[4-(3-(2-Dimethylaminoethyl)amino)phenyl]octahydroindolizine] had a Ki of 75 nM.
Same read-out and setting: the figure for `CS(=O)(=O)N(c1cccc(COc2ccc([C@H]3CC[C@H]4CCCCN43)cc2)c1)S(C)(=O)=O` (racemic) [Example 82, trans-3-[4-(3-bis-Methansulfonaminobenzyloxy)phenyl]octahydroindolizine] is 128 nM.
